Literature values, collected in US11590077B2, “Fulvestrant formulations and methods of their use” (EAGLE PHARMACEUTICALS, INC., priority 2017, dated 2023).

Conditions: background statement

In the case of `C[C@]12CC[C@@H]3c4ccc(O)cc4C[C@@H](CCCCCCCCC[S+]([O-])CCCC(F)(F)C(F)(F)F)[C@H]3[C@@H]1CC[C@@H]2O` (stereo partly shown) [Fulvestrant, 7-(9-(4,4,5,5,5-pentafluoropentylsulfinyl)nonyl) estra-1,3,5(10)-triene-3,17-diol], the aqueous solubility is given as “extremely low”.
